The text below walks through data of patent publication US12404262B2 (priority 2021, dated 2025).

For this data set the following is noted: 1.0% DMSO, 24-hour incubation at ambient temperature, maximum theoretical 100 μM; for pH 2 solubility: 0.1N HCl, first value of the cell; for pH 7 solubility: 1×PBS buffer (pH 7.4), second value of the cell.

Consider `CC(C)(C#Cc1ccc(-c2ccc(Cl)c3c(N(C(=O)CN4CCNCC4)S(C)(=O)=O)nn(CC(F)(F)F)c23)c([C@H](Cc2cc(F)cc(F)c2)NC(=O)Cn2nc(C(F)(F)F)c3c2C(F)(F)[C@@H]2C[C@H]32)n1)S(C)(=O)=O` [Compound 7, (N-(4-chloro-7-(2-((S)-1-(2-((3bS,4aR)-5,5-difluoro-3-(trifluoromethyl)-3b,4,4a,5-tetrahydro-1H-cyclopropa[3,4]cyclopenta[1,2-c]pyrazol-1-yl)acetamido)-2-(3,5-difluorophenyl)ethyl)-6-(3-methyl-3-(methylsulfonyl)but-1-yn-1-yl)pyridin-3-yl)-1-(2,2,2-trifluoroethyl)-1H-indazol-3-yl)-N-(methylsulfonyl)-2-(piperazin-1-yl)acetamide)], for which the “pH 2 solubility” value was 65 μM and the “pH 7 solubility” value is recorded as 7 μM.

In the case of `CC(=O)N(c1nn(CC(F)(F)F)c2c(-c3ccc(C#CC(C)(C)S(C)(=O)=O)nc3[C@H](Cc3cc(F)cc(F)c3)NC(=O)Cn3nc(C(F)(F)F)c4c3C(F)(F)[C@@H]3C[C@H]43)ccc(Cl)c12)S(C)(=O)=O` [Compound 1, N—((S)-1-(3-(4-chloro-3-(N-(methylsulfonyl)acetamido)-1-(2,2,2-trifluoroethyl)-1H-indazol-7-yl)-6-(3-methyl-3-(methylsulfonyl)but-1-yn-1-yl)pyridin-2-yl)-2-(3,5-difluorophenyl)ethyl)-2-((3bS,4aR)-5,5-difluoro-3-(trifluoromethyl)-3b,4,4a,5-tetrahydro-1H-cyclopropa[3,4]cyclopenta[1,2-c]pyrazol-1-yl)acetamide], the “pH 2 solubility” value is recorded as 1/1 μM and the “pH 7 solubility” value was 1/1 μM.

In the case of `CC(C)(C#Cc1ccc(-c2ccc(Cl)c3c(N(C(=O)OCC(=O)O)S(C)(=O)=O)nn(CC(F)(F)F)c23)c([C@H](Cc2cc(F)cc(F)c2)NC(=O)Cn2nc(C(F)(F)F)c3c2C(F)(F)[C@@H]2C[C@H]32)n1)S(C)(=O)=O` [Compound 117, 2-(((4-chloro-7-(2-((S)-1-(2-((3bS,4aR)-5,5-difluoro-3-(trifluoromethyl)-3b,4,4a,5-tetrahydro-1H-cyclopropa[3,4]cyclopenta[1,2-c]pyrazol-1-yl)acetamido)-2-(3,5-difluorophenyl)ethyl)-6-(3-methyl-3-(methylsulfonyl)but-1-yn-1-yl)pyridin-3-yl)-1-(2,2,2-trifluoroethyl)-1H-indazol-3-yl)(methylsulfonyl)carbamoyl)oxy)acetic acid], the “pH 2 solubility” value is on record as 9 μM and the “pH 7 solubility” value was 10 μM.

`CC(C)(C#Cc1ccc(-c2ccc(Cl)c3c(N(C(=O)NC(CO)CO)S(C)(=O)=O)nn(CC(F)(F)F)c23)c([C@H](Cc2cc(F)cc(F)c2)NC(=O)Cn2nc(C(F)(F)F)c3c2C(F)(F)[C@@H]2C[C@H]32)n1)S(C)(=O)=O` [Compound 36, N—((S)-1-(3-(4-chloro-3-(N-((1,3-dihydroxypropan-2-yl)carbamoyl)methylsulfonamido)-1-(2,2,2-trifluoroethyl)-1H-indazol-7-yl)-6-(3-methyl-3-(methylsulfonyl)but-1-yn-1-yl)pyridin-2-yl)-2-(3,5-difluorophenyl)ethyl)-2-((3bS,4aR)-5,5-difluoro-3-(trifluoromethyl)-3b,4,4a,5-tetrahydro-1H-cyclopropa[3,4]cyclopenta[1,2-c]pyrazol-1-yl)acetamide]: the “pH 2 solubility” value amounted to 1 μM and the “pH 7 solubility” value was 5 μM.

As for `CC(C)(C#Cc1ccc(-c2ccc(Cl)c3c(N(COC(=O)CCP(=O)(O)O)S(C)(=O)=O)nn(CC(F)(F)F)c23)c([C@H](Cc2cc(F)cc(F)c2)NC(=O)Cn2nc(C(F)(F)F)c3c2C(F)(F)[C@@H]2C[C@H]32)n1)S(C)(=O)=O` [Compound 21, (3-((N-(4-chloro-7-(2-((S)-1-(2-((3bS,4aR)-5,5-difluoro-3-(trifluoromethyl)-3b,4,4a,5-tetrahydro-1H-cyclopropa[3,4]cyclopenta[1,2-c]pyrazol-1-yl)acetamido)-2-(3,5-difluorophenyl)ethyl)-6-(3-methyl-3-(methylsulfonyl)but-1-yn-1-yl)pyridin-3-yl)-1-(2,2,2-trifluoroethyl)-1H-indazol-3-yl)methylsulfonamido)methoxy)-3-oxopropyl)phosphonic acid], the “pH 2 solubility” value is on record as 86 μM and the “pH 7 solubility” value is on record as 1 μM.

In the case of `CC(C)(C#Cc1ccc(-c2ccc(Cl)c3c(N(C(=O)NCCCCP(=O)(O)O)S(C)(=O)=O)nn(CC(F)(F)F)c23)c([C@H](Cc2cc(F)cc(F)c2)NC(=O)Cn2nc(C(F)(F)F)c3c2C(F)(F)[C@@H]2C[C@H]32)n1)S(C)(=O)=O` [Compound 55, (4-(3-(4-chloro-7-(2-((S)-1-(2-((3bS,4aR)-5,5-difluoro-3-(trifluoromethyl)-3b,4,4a,5-tetrahydro-1H-cyclopropa[3,4]cyclopenta[1,2-c]pyrazol-1-yl)acetamido)-2-(3,5-difluorophenyl)ethyl)-6-(3-methyl-3-(methylsulfonyl)but-1-yn-1-yl)pyridin-3-yl)-1-(2,2,2-trifluoroethyl)-1H-indazol-3-yl)-3-(methylsulfonyl)ureido)butyl)phosphonic acid], the “pH 2 solubility” value is on record as 1 μM and the “pH 7 solubility” value stood at 13 μM.

Turning to `CC(C)(CO)C(=O)OCN(c1nn(CC(F)(F)F)c2c(-c3ccc(C#CC(C)(C)S(C)(=O)=O)nc3[C@H](Cc3cc(F)cc(F)c3)NC(=O)Cn3nc(C(F)(F)F)c4c3C(F)(F)[C@@H]3C[C@H]43)ccc(Cl)c12)S(C)(=O)=O` [Compound 24, (N-(4-chloro-7-(2-((S)-1-(2-((3bS,4aR)-5,5-difluoro-3-(trifluoromethyl)-3b,4,4a,5-tetrahydro-1H-cyclopropa[3,4]cyclopenta[1,2-c]pyrazol-1-yl)acetamido)-2-(3,5-difluorophenyl)ethyl)-6-(3-methyl-3-(methylsulfonyl)but-1-yn-1-yl)pyridin-3-yl)-1-(2,2,2-trifluoroethyl)-1H-indazol-3-yl)methylsulfonamido)methyl 3-hydroxy-2,2-dimethylpropanoate], the “pH 2 solubility” value is 1/1 μM and the “pH 7 solubility” value is on record as 1/1 μM.

Take `CC(C)(C#Cc1ccc(-c2ccc(Cl)c3c(N(C(=O)N[C@@](C)(CC(=O)O)C(=O)O)S(C)(=O)=O)nn(CC(F)(F)F)c23)c([C@H](Cc2cc(F)cc(F)c2)NC(=O)Cn2nc(C(F)(F)F)c3c2C(F)(F)[C@@H]2C[C@H]32)n1)S(C)(=O)=O` [Compound 65, (S)-2-(3-(4-chloro-7-(2-((S)-1-(2-((3bS,4aR)-5,5-difluoro-3-(trifluoromethyl)-3b,4,4a,5-tetrahydro-1H-cyclopropa[3,4]cyclopenta[1,2-c]pyrazol-1-yl)acetamido)-2-(3,5-difluorophenyl)ethyl)-6-(3-methyl-3-(methylsulfonyl)but-1-yn-1-yl)pyridin-3-yl)-1-(2,2,2-trifluoroethyl)-1H-indazol-3-yl)-3-(methylsulfonyl)ureido)-2-methylsuccinic acid]: the “pH 2 solubility” value is given as 1 μM and the “pH 7 solubility” value was found to be 52 μM.
